Data published in patent publication US10537590B2, “Cyclic dinucleotide compounds” (BOEHRINGER INGELHEIM INTERNATIONAL GMBH, priority 2016, dated 2020).
Counter-ions that a name gives are not always drawn.

Experiments:
[1] = Mouse PK, plasma concentration after intravenous administration; assay type: in vivo; settings: male C57BL/6NRj mouse, 10 μmol/Kg, mean of duplicate experiments
Procedure: The mouse PK of compounds of the invention was determined using the following method:
The compound was dissolved in a solution of physiological NaCl and administered intravenously to male C57BL/6NRj mouse at a dose of 10 μmol/Kg. A 20 μL blood sample was collected at 0.25, 0.5, 0.75, 1 and 2 h by taking ETDA as anticoagulant. Blood plasma was generated by centrifugation and stored at −20° C. The compound concentration was determined by LC-MS/MS.

[2] = target: Human STING (hSTING, residues 155-341, wild-type sequence) (Homo sapiens, UniProt Q86WV6, H232R); assay: Differential Scanning Fluorimetry (DSF), hSTING Tm shift; assay type: binding; settings: 100 uM test compound, 3 uM target protein; for hSTING Tm shift: Sodium Salt
Chain of Human STING (hSTING, residues 155-341, wild-type sequence) (Q86WV6 155-341 H232R): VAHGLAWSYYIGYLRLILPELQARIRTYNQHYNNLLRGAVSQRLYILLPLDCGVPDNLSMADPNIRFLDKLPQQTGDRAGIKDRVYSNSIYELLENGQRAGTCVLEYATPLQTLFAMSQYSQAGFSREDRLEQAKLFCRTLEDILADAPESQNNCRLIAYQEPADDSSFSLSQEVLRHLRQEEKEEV
Excerpt: The dissociation curves were processed in Bio-Rad CFX Manager. • Peak type was set to “negative”.

[3] = target: human STING protein in THP1-Blue ISG cells (Homo sapiens, UniProt Q86WV6, G230A/H232R/R293Q/R71H); assay: In vitro cytokine induction, THP1-Blue ISG IRF-inducible SEAP reporter assay; settings: 24 hours incubation, OD at 620 nm
Chain of human STING protein in THP1-Blue ISG cells (Q86WV6 whole entry R71H/G230A/H232R/R293Q): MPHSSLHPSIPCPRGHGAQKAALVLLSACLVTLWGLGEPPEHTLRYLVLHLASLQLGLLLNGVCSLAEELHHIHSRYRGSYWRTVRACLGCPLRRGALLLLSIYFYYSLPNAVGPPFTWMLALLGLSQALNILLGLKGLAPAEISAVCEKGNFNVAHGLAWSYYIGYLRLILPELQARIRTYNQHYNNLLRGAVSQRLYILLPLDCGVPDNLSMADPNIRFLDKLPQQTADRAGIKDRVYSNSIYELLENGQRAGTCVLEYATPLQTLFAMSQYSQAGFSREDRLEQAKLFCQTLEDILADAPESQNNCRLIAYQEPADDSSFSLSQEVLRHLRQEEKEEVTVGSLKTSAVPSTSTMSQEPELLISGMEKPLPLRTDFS
Procedure: In Vitro Cytokine Induction
Using Invivogen's QUANTI-Blue™ colorimetric enzyme assay and a suitable optical density (OD) reader the activity of SEAP can be detected and quantified.
Measurements of SEAP activity were performed in THP1-Blue ISG cells stably expressing the human STING protein and the IRF-inducible SEAP reporter construct. Cells were cultivated for expansion in RPM11640 medium with 10% fetal calf serum, 50 μg/ml Penicillin-Streptomycin, 100 μg/ml Zeocin, and 100 μg/ml Normocin in a 37°, 95% humidity and 5% CO2 incubator. Assay-ready cells were stored as frozen stocks In preparation for the assay, the cells thawed in Zeocin-/Normocin-free medium and were distributed into the assay plates with a density of 15000 cells/15 μL per well. Compounds were prepared by an 8 or 16 point serial dilution in 50% aqueous DMSO and a final dilution step into medium to ensure a final DMSO concentration of 0.5% in the assay. 5 μL of diluted compounds plus 5 μL medium were added to the plates, followed by a 24 hours incubation at 37° C.
At the day of the assay, 75 μl per well of Quanti-Blue reagent was added to all wells of the plate and the plate was incubated another 30 minutes at 37° C. The OD at 620 nm was measured on the EnVision reader (PerkinElmer).

## Nc1ncnc2c1ncn2[C@@H]1O[C@@H]2COP(=O)(S)O[C@H]3C(n4cnc5c(=O)[nH]ncc54)O[C@H](COP(=O)(S)O[C@H]2[C@H]1O)[C@H]3O (single isomer, unassigned) [Example 1.1, Cyclic (imidazopyridazinon-β-D-ribofuranoside-(2′→5′)-phosphorothioate-adenosine-(3′→5′)-phosphorothioate)]
[1]
  compound concentration in plasma, T = 0.25 h: 3080 nM
  compound concentration in plasma, T = 0.5 h: 1200 nM
  compound concentration in plasma, T = 0.75 h: 550 nM
  compound concentration in plasma, T = 1 h: 249 nM
  compound concentration in plasma, T = 2 h: 120 nM

## Nc1ncnc2c1ncn2[C@@H]1O[C@@H]2COP(=O)(S)O[C@@H]3[C@H](O)[C@@H](COP(=O)(S)O[C@H]2[C@H]1F)O[C@H]3n1cnc2c(=O)[nH]ncc21 (single isomer, unassigned) [Example 2.1, Cyclic (imidazopyridazinon-β-D-ribofuranoside-(2′→5′)-phosphorothioate-2′-F-2′-deoxyadenosine-(3′→5′)-phosphorothioate]
[1]
  compound concentration in plasma, T = 0.25 h: 1970 nM
  compound concentration in plasma, T = 0.5 h: 699 nM
  compound concentration in plasma, T = 0.75 h: 401 nM
  compound concentration in plasma, T = 1 h: 241 nM
  compound concentration in plasma, T = 2 h: 78 nM

## Nc1ncnc2c1ncn2[C@@H]1O[C@]23CO[C@@H]1[C@@H]2OP(=O)(S)OC[C@H]1O[C@@H](n2cnc4c(=O)[nH]ncc42)[C@H](OP(=O)(S)OC3)[C@@H]1O (single isomer, unassigned) [Example 3.1, Cyclic (imidazopyridazinon-β-D-ribofuranoside-(2′→5′)-phosphorothioate-LNA-adenine-(3′→5′)-phosphorothioate), Sodium Salt]
[2]
  hSTING Tm shift: 17.0 °C
[1]
  compound concentration in plasma, T = 0.25 h: 2710 nM
  compound concentration in plasma, T = 0.5 h: 1280 nM
  compound concentration in plasma, T = 0.75 h: 595 nM
  compound concentration in plasma, T = 1 h: 260 nM
  compound concentration in plasma, T = 2 h: 111 nM
[3]
  EC50: 0.17 µM

## Nc1ncnc2c1ncn2[C@@H]1O[C@]23CO[C@@H]1[C@@H]2OP(=O)(S)OC[C@H]1O[C@@H](n2cnc4c(=O)[nH]ncc42)[C@H](OP(=O)(S)OC3)[C@@H]1O (single isomer, unassigned) [Example 3.2, Cyclic (imidazopyridazinon-β-D-ribofuranoside-(2′→5′)-phosphorothioate-LNA-adenine-(3′→5′)-phosphorothioate), Sodium Salt]
[2]
  ΔTm at 100 µM: 9 °C
[3]
  EC50: 8.5 µM

## O=c1[nH]ncc2c1ncn2[C@@H]1O[C@@H]2COP(=O)(S)O[C@H]3[C@@H](O)[C@H](n4cnc5cncnc54)O[C@@H]3COP(=O)(S)O[C@@H]1[C@@H]2O (single isomer, unassigned) [Example 4.1, Cyclic (imidazopyridazinon-β-D-ribofuranoside-(2′→5′)-phosphorothioate-purine-β-D ribofuranoside-(3′→5′)-phosphorothioate), Sodium Salt]
[2]
  ΔTm at 100 µM: 13.9 °C
[3]
  EC50: 0.19 µM

## O=c1[nH]ncc2c1ncn2[C@@H]1O[C@@H]2COP(=O)(S)O[C@H]3[C@@H](O)[C@H](n4cnc5cncnc54)O[C@@H]3COP(=O)(S)O[C@@H]1[C@@H]2O (single isomer, unassigned) [Example 4.2, Cyclic (imidazopyridazinon-β-D-ribofuranoside-(2′→5′)-phosphorothioate-purine-β-D ribofuranoside-(3′→5′)-phosphorothioate), Sodium Salt]
[2]
  hSTING Tm shift: 9.0 °C
[3]
  EC50: 6.2 µM
